From paper PMC12616683, “In Vivo Atlas of Neuroprotective Cyclic Dipeptides Derived from Food Gelatin Using Peptidomics and Feature-Based Molecular Networking” (Journal of Agricultural and Food Chemistry, 2025)
Square brackets hold non-standard residues; d marks the D form. Peptide text beside a SMILES is read from it. pGlu = O=C1CC[CH](C(=O)O)N1

Test: FBMN analysis of short peptides in small intestine contents and serum after oral DHG
Conditions: for Peptide signal (feature intensity) in the small intestine, 30 min / Peptide signal (feature intensity) in the small intestine, 60 min / Peptide signal (feature intensity) in the small intestine, 120 min / Peptide signal (feature intensity) in the small intestine, 240 min: small intestine contents, C57 mice, FBMN feature intensity, peptides smaller than 690 Da; for Peptide signal (feature intensity) in the small intestine, 30 min: 30 min after oral DHG; for Peptide signal (feature intensity) in the small intestine, 60 min: 60 min after oral DHG; for Peptide signal (feature intensity) in the small intestine, 120 min: 120 min after oral DHG; for Peptide signal (feature intensity) in the small intestine, 240 min: 240 min after oral DHG; for time detected in serum (FBMN): time points 0.5-4 h after oral DHG

SMILES	Peptide signal (feature intensity) in the small intestine, 30 min	Peptide signal (feature intensity) in the small intestine, 60 min	Peptide signal (feature intensity) in the small intestine, 120 min	Peptide signal (feature intensity) in the small intestine, 240 min	time detected in serum (FBMN)
CC[C@H](C)[C@H](N)C(=O)N[C@H](C(=O)N[C@@H](CCCCN)C(=O)O)[C@@H](C)CC [Ile-Ile-Lys] (H-Ile-Ile-Lys-OH)	3.33E+05	2.00E+05	0.00E+00	0.00E+00	
CC(C)C[C@@H]1NC(=O)[C@H](Cc2ccccc2)NC1=O [cyclo(Leu-Phe)]					0.5 to 4 h
CC(C)CC(NC(=O)C(NC(=O)C(N)C(C)O)C(C)C)C(=O)O (stereo not drawn) [Thr-Val-Leu] (H-Thr-Val-Leu-OH; configuration not given here)	5.29E+05	1.54E+05	0.00E+00	1.07E+06	
CC[C@H](C)[C@H](NC(=O)[C@@H](N)CC(N)=O)C(=O)O [Asn-Ile] (H-Asn-Ile-OH)	1.55E+06	1.54E+06	4.19E+06	2.54E+06	
CC(C)C[C@H](N)C(=O)N[C@@H](C)C(=O)O [Leu-ala] (H-Leu-Ala-OH)	1.85E+06	1.64E+06	0.00E+00	0.00E+00	
Nc1nc2c(ncn2[C@@H]2O[C@H](CO)[C@@H](O)[C@H]2O)c(=O)[nH]1 [Guanosine]	8.57E+06	2.01E+06	0.00E+00	0.00E+00	
O=C1CCC(C(=O)NC(Cc2ccc(O)cc2)C(=O)O)N1 (centres unmarked) [PyroGlu-Tyr] ([pGlu]-Tyr-OH; configuration not given here)	0.00E+00	2.55E+07	0.00E+00	1.33E+07	
CC(C)[C@H](N)C(=O)NCC(=O)N[C@H](C(=O)O)C(C)C [Val-Gly-Val] (H-Val-Gly-Val-OH)	4.35E+07	3.24E+07	0.00E+00	4.99E+06	
CC(C)C[C@H](NC(=O)[C@@H](N)CO)C(=O)N[C@@H](CCCCN)C(=O)O [Ser-Leu-Lys] (H-Ser-Leu-Lys-OH)	8.94E+05	6.69E+05	1.60E+06	4.59E+06	
NC(Cc1ccccc1)C(=O)N1CCCC1C(=O)O (stereo not drawn) [Phe-Pro] (H-Phe-Pro-OH; configuration not given here)	1.25E+06	7.11E+05	1.63E+06	3.02E+06	
CCC(C)C(N)C(=O)NC(C(=O)O)C(C)O (stereo not drawn) [Ile-Thr] (H-Ile-Thr-OH; configuration not given here)	6.56E+06	7.13E+06	0.00E+00	0.00E+00	
NC(Cc1ccc(O)cc1)C(=O)NC(Cc1ccc(O)cc1)C(=O)O (stereo not drawn) [Tyr-Tyr] (H-Tyr-Tyr-OH; configuration not given here)	2.40E+05	1.86E+06	0.00E+00	0.00E+00	
CC[C@H](C)[C@H](NC(=O)[C@@H](N)C(C)C)C(=O)N[C@@H](CCCCN)C(=O)O [Val-Ile-Lys] (H-Val-Ile-Lys-OH)	0.00E+00	2.02E+05	0.00E+00	4.35E+06	
CCC(C)C(N)C(=O)NC(CCCCN)C(=O)O (stereo not drawn) [Ile-Lys] (H-Ile-Lys-OH; configuration not given here)	0.00E+00	0.00E+00	0.00E+00	0.00E+00	
CSCC[C@H](N)C(=O)O [Methionine]	0.00E+00	0.00E+00	1.12E+05	2.58E+05	
N[C@@H](CC(=O)O)C(=O)N1CCC[C@H]1C(=O)O [Asp-Pro] (H-Asp-Pro-OH)	0.00E+00	7.32E+06	1.15E+07	2.09E+07	
CC[C@H](C)[C@H](N)C(=O)N[C@@H](CC(N)=O)C(=O)O [Ile-Asn] (H-Ile-Asn-OH)	7.93E+06	7.66E+06	0.00E+00	0.00E+00	
CC[C@H](C)[C@H](N)C(=O)N[C@@H](CCC(=O)O)C(=O)N[C@@H](CCCCN)C(=O)O [Ile-Glu-Lys] (H-Ile-Glu-Lys-OH)	0.00E+00	6.83E+05	0.00E+00	2.93E+06	
CCC(C)C(NC(=O)C1CCC(=O)N1)C(=O)O (centres unmarked) [PyroGlu-Ile] ([pGlu]-Ile-OH; configuration not given here)	7.74E+05	1.17E+06	5.33E+05	0.00E+00	only detected in the first hour

Next, values leading:

Peptide signal (feature intensity) in the small intestine, 30 min	Peptide signal (feature intensity) in the small intestine, 60 min	Peptide signal (feature intensity) in the small intestine, 120 min	Peptide signal (feature intensity) in the small intestine, 240 min	time detected in serum (FBMN)	SMILES
6.78E+05	4.16E+05	0.00E+00	1.73E+06		N[C@@H](CCC(=O)O)C(=O)N[C@@H](Cc1ccc(O)cc1)C(=O)O [Glu-Tyr] (H-Glu-Tyr-OH)
2.73E+05	1.52E+05	4.18E+05	1.30E+06		CC(C)[C@H](NC(=O)[C@@H](N)CCC(=O)O)C(=O)N[C@@H](Cc1ccccc1)C(=O)O [Glu-Val-Phe] (H-Glu-Val-Phe-OH)
4.42E+05	1.79E+06	8.30E+05	0.00E+00		NC(Cc1ccccc1)C(=O)NC(Cc1ccc(O)cc1)C(=O)O (stereo not drawn) [Phe-Tyr] (H-Phe-Tyr-OH; configuration not given here)
4.05E+04	6.53E+03	0.00E+00	0.00E+00		C[C@@H](O)[C@H](NC(=O)[C@@H](N)Cc1ccccc1)C(=O)O [Phe-Thr]
1.12E+06	1.09E+06	0.00E+00	0.00E+00		CC(C)C(NC(=O)C(N)Cc1ccccc1)C(=O)O (stereo not drawn) [Phe-Val] (H-Phe-Val-OH; configuration not given here)
0.00E+00	0.00E+00	5.87E+05	2.12E+06		CSCC[C@H](N)C(=O)N[C@@H](Cc1ccccc1)C(=O)O [Met-Phe] (H-Met-Phe-OH)
3.76E+07	6.08E+07	1.22E+08	1.29E+08	only detected in the first hour	N[C@@H](CC(=O)O)C(=O)N[C@@H](Cc1ccccc1)C(=O)O [Asp-Phe] (H-Asp-Phe-OH)
1.38E+06	1.78E+06	0.00E+00	0.00E+00		CC(C)[C@H](N)C(=O)N[C@@H](Cc1ccccc1)C(=O)O [Val-Phe] (H-Val-Phe-OH)
0.00E+00	3.96E+06	0.00E+00	1.66E+07	≥ 4 h	N[C@@H](CCC(=O)O)C(=O)N[C@@H](Cc1ccccc1)C(=O)O [Glu-Phe]
0.00E+00	0.00E+00	5.98E+05	1.03E+06		CSCCC(N)C(=O)NC(C(=O)O)C(C)C (stereo not drawn) [Met-Val] (H-Met-Val-OH; configuration not given here)
